Values joined by “and” are separate entries in the source; they are usually repeats but may differ in a detail not shown here. Equal values may be shown once. Active and inactive are the calls of the source. The rule behind the calls is not given here.
System: rodent lifetime carcinogenesis bioassay, tumor incidence TD50
Assay: chronic cancer bioassays in animals – CPDB, compiled studies (AID 1745844)

## Nc1ccc2c(n1)[nH]c1ccccc12
mouse, strain CDF1, females, in feed, site: blood vessels, lesion: hemangioendothelial sarcoma, dosed 97 weeks, study length 97 weeks
  TD50: 381 mg/kg/day
mouse, strain CDF1, females, in feed, site: liver, lesion: hepatocellular carcinoma, dosed 97 weeks, study length 97 weeks
  TD50: 44.7 mg/kg/day
mouse, strain CDF1, females, in feed, site: liver, lesion: several types, types named in the paper, dosed 97 weeks, study length 97 weeks
  TD50: 35.6 mg/kg/day
mouse, strain CDF1, females, in feed, site: lung, lesion: adenoma, dosed 97 weeks, study length 97 weeks
  TD50: 795 mg/kg/day
mouse, strain CDF1, females, in feed, site: lung, lesion: several types, types named in the paper, dosed 97 weeks, study length 97 weeks
  TD50: 1150 mg/kg/day
mouse, strain CDF1, males, in feed, site: blood vessels, lesion: hemangioendothelial sarcoma, dosed 97 weeks, study length 97 weeks
  TD50: 103 mg/kg/day
mouse, strain CDF1, males, in feed, site: blood vessels, lesion: several types, types named in the paper, dosed 97 weeks, study length 97 weeks
  TD50: 82.6 mg/kg/day
mouse, strain CDF1, males, in feed, site: liver, lesion: hepatocellular adenoma, dosed 97 weeks, study length 97 weeks
  TD50: 352 mg/kg/day
mouse, strain CDF1, males, in feed, site: liver, lesion: hepatocellular carcinoma, dosed 97 weeks, study length 97 weeks
  TD50: 225 mg/kg/day
mouse, strain CDF1, males, in feed, site: liver, lesion: several types, types named in the paper, dosed 97 weeks, study length 97 weeks
  TD50: 122 mg/kg/day

## Nc1c(Cl)cc(Cl)cc1Cl
mouse, strain CD-1 HaM/ICR, females, in feed, site: any site (literature study), lesion: several types, types named in the paper, dosed 68 weeks, study length 77 weeks
  TD50: 914 mg/kg/day (inactive)
mouse, strain CD-1 HaM/ICR, females, in feed, site: liver, lesion: several types, types named in the paper, dosed 68 weeks, study length 77 weeks
  TD50: 927 mg/kg/day (inactive)
mouse, strain CD-1 HaM/ICR, females, in feed, site: lung, lesion: several types, types named in the paper, dosed 68 weeks, study length 77 weeks
  TD50: 1370 mg/kg/day (inactive)
mouse, strain CD-1 HaM/ICR, males, in feed, site: all sites, lesion: all vascular tumors, dosed 68 weeks, study length 77 weeks
  TD50: 273 mg/kg/day and 259 mg/kg/day
mouse, strain CD-1 HaM/ICR, males, in feed, site: any site (literature study), lesion: several types, types named in the paper, dosed 68 weeks, study length 77 weeks
  TD50: 206 mg/kg/day
mouse, strain CD-1 HaM/ICR, males, in feed, site: liver, lesion: hepatoma, dosed 68 weeks, study length 77 weeks
  TD50: 560 mg/kg/day
mouse, strain CD-1 HaM/ICR, males, in feed, site: liver, lesion: several types, types named in the paper, dosed 68 weeks, study length 77 weeks
  TD50: 452 mg/kg/day
mouse, strain CD-1 HaM/ICR, males, in feed, site: lung, lesion: several types, types named in the paper, dosed 68 weeks, study length 77 weeks
  TD50: 385 mg/kg/day (inactive)
rat, strain Charles River CD (Sprague-Dawley), males, in feed, site: any site (literature study), lesion: several types, types named in the paper, dosed 77 weeks, study length 116 weeks
  TD50: 45.9 mg/kg/day (inactive)
rat, strain Charles River CD (Sprague-Dawley), males, in feed, site: liver, lesion: several types, types named in the paper, dosed 77 weeks, study length 116 weeks
  carcinogen call: negative (inactive)

## Nc1nc(N)nc(-c2ccc([N+](=O)[O-])o2)n1
rat, strain Sprague-Dawley, females, in feed, site: any site (literature study), lesion: several types, types named in the paper, dosed 46 weeks, study length 66 weeks
  TD50: 1.71 mg/kg/day
rat, strain Sprague-Dawley, females, in feed, site: mammary gland, lesion: adenocarcinoma, dosed 46 weeks, study length 66 weeks
  TD50: 4.49 mg/kg/day
rat, strain Sprague-Dawley, females, in feed, site: mammary gland, lesion: several types, types named in the paper, dosed 46 weeks, study length 66 weeks
  TD50: 1.71 mg/kg/day

## CN(N=O)C(=O)c1ccccc1C(=O)N(C)N=O
rat, strain Wistar, males, by gavage, site: any site (literature study), lesion: several types, types named in the paper, dosed 67 weeks, study length 67 weeks
  carcinogen call: negative (inactive)

From PubChem BioAssay AID1745844 (Carcinogenic Potency Database (CPDB), 2022)
